Measured values taken from patent US9255100B2 (BAYER INTELLECTUAL PROPERTY GMBH, priority 2010, dated 2016).

These molecules were tested against T1, N-terminally GST-tagged human full length recombinant Mps-1 kinase (Homo sapiens, UniProt P33981) (assay: Mps-1 kinase assay (TR-FRET)). Settings: Mps1 IC50 [nM], 10 μM ATP, 1 μM peptide substrate, 60 min at 22° C.
T1 construct: N-terminally GST-tagged human full length recombinant Mps-1 kinase; purchased Invitrogen, Karslruhe, Germany PV4071
T1 sequence (P33981 1-857): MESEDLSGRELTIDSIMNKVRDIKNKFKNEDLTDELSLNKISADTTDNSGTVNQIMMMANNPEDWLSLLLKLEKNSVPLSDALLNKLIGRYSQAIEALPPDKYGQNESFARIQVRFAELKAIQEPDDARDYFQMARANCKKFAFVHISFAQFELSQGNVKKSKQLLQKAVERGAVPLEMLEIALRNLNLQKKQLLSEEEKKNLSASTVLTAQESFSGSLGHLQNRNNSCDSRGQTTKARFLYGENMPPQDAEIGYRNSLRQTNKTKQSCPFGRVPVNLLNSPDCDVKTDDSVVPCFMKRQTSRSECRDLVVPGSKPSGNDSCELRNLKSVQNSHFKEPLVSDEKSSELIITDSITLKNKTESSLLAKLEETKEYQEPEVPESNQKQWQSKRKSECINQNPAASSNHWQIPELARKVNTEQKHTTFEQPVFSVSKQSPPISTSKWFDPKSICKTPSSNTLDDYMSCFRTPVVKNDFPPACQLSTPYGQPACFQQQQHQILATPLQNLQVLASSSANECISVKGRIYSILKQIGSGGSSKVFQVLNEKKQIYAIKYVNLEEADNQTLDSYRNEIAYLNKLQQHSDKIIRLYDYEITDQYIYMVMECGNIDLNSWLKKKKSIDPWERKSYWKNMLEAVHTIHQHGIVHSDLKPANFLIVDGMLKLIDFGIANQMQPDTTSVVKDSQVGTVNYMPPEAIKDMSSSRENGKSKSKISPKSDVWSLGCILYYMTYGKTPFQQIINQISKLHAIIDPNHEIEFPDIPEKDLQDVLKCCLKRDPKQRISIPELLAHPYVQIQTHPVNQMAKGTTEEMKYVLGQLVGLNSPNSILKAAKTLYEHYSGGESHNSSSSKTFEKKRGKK
Format: biochemical
Outline: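 Inhibition of Mps-1 (N-terminal GST fusion, full length) toward a biotinylated peptide is read as Eu-to-XLent TR-FRET. Enzyme level, around 1 nM final, follows lot activity.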

SMILES | IC50 [nM]
C/C=C(\C)c1cc(NCC(C)(C)O)c2ncc(-c3ccc(C(=O)NC4CC4)c(C)c3)n2n1 [Example 25, 4-{6-[(2E)-But-2-en-2-yl]-8-[(2-hydroxy-2-methylpropyl)amino]imidazo[1,2-b]pyridazin-3-yl}-N-cyclopropyl-2-methylbenzamide] | 13.1
CCNC(=O)c1ccc(-c2cnc3c(NCC4CCOCC4)cc(Oc4ccc(OC)cc4)nn23)cc1C [Example 597, N-ethyl-4-{6-(4-methoxyphenoxy)-8-[(tetrahydro-2H-pyran-4-ylmethyl)a-mino]imidazo[1,2-b]pyridazin-3-yl}-2-methylbenzamide] | 1.1
CC(C)CNc1cc(-c2ccccc2O)nn2c(-c3ccc(C(=O)NC4CC4)cc3)cnc12 [Example 139, N-cyclopropyl-4-{6-(2-hydroxyphenyl)-8-[(2-methylpropyl)amino]imidazo[1,2-b]pyridazin-3-yl}benzamide] | 3.7
CC(C)CNc1cc(-c2ccc(C(=O)N(C)C)cc2)nn2c(-c3ccc(C(=O)NC4CC4)cc3)cnc12 [Example 109, 4-{3-[4-(Cyclopropylcarbamoyl)phenyl]-8-[(2-methylpropyl)amino]imidazo[1,2-b]pyridazin-6-yl}-N,N-dimethylbenzamide] | 2.1
Cc1cc(-c2cnc3c(NCC(C)(C)O)cc(Sc4cccc(C(C)C)c4)nn23)ccc1C(=O)NC1CC1 [Example 273, N-cyclopropyl-4-{8-[(2-hydroxy-2-methylpropyl)amino]-6-[(3-isopropylphenyl)sulfanyl]imidazo[1,2-b]pyridazin-3-yl}-2-methylbenzamide] | 0.5
CNC(=O)c1ccc(-c2cnc3c(NCC4CCOCC4)cc(Oc4ccc(OC)cc4F)nn23)cc1C [Example 571, 4-{6-(2-fluoro-4-methoxyphenoxy)-8-[(tetrahydro-2H-pyran-4-ylmethyl)amino]imidazo[1,2-b]pyridazin-3-yl}-N,2-dimethylbenzamide] | < 1
COc1cc(C(=O)NC2CC2)ccc1-c1cnc2c(NCC(C)(C)O)cc(Sc3cccc(F)c3)nn12 [Example 62B, N-cyclopropyl-4-{6-[(3-fluorophenyl)sulfanyl]-8-[(2-hydroxy-2-methylpropyl)amino]imidazo[1,2-b]pyridazin-3-yl}-3-methoxybenzamide] | 11.5
CNC(=O)c1ccc(-c2cnc3c(NCC(C)C)cc(Cl)nn23)cc1 [Example 178, 4-{6-Chloro-8-[(2-methylpropyl)amino]imidazo[1,2-b]pyridazin-3-yl}-N-methylbenzamide] | 172
CCNC(=O)c1ccc(-c2cnc3c(NCC4CCOCC4)cc(Oc4ccc(OC)c(F)c4)nn23)cc1C [Example 600, N-ethyl-4-{6-(3-fluoro-4-methoxyphenoxy)-8-[(tetrahydro-2H-pyran-4-ylmethyl)a-mino]imidazo[1,2-b]pyridazin-3-yl}-2-methylbenzamide] | < 1
Cc1cc(-c2cnc3c(NCC(C)(C)O)cc(-c4ccc(F)c(CO)c4)nn23)ccc1C(=O)NC1CC1 [Example 165, N-cyclopropyl-4-{6-[4-fluoro-3-(hydroxymethyl)phenyl]-8-[(2-hydroxy-2-methylpropyl)amino]imidazo[1,2-b]pyridazin-3-yl}-2-methylbenzamide] | 1.8
Cc1cc(-c2cnc3c(NCCC(F)(F)F)cc(Sc4cnccn4)nn23)ccc1C(=O)NC1CC1 [Example 420, N-cyclopropyl-2-methyl-4-{6-(pyrazin-2-ylsulfanyl)-8-[(3,3,3-trifluoropropyl)amino]imidazo[1,2-b]pyridazin-3-yl}benzamide] | 2.8
Cc1cc(-c2cnc3c(NCCC(F)(F)F)cc(Sc4ccc(C(F)(F)F)cc4)nn23)ccc1C(=O)NC1CC1 [Example 247, N-cyclopropyl-2-methyl-4-(6-{[4-(trifluoromethyl)phenyl]sulfanyl}-8-[(3,3,3-trifluoropropyl)amino]imidazo[1,2-b]pyridazin-3-yl)benzamide] | 1.7
Fc1ccc(-c2cc(NCCC(F)(F)F)c3ncc(-c4ccc(-c5cnc(C6CC6)[nH]5)cc4)n3n2)cc1 [Example 6, 3-[4-(2-Cyclopropyl-1H-imidazol-5-yl)phenyl]-6-(4-fluorophenyl)-N-(3,3,3-trifluoropropyl)imidazo[1,2-b]pyridazin-8-amine] | 43.6
Cc1ccc(Oc2cc(NCC(C)(C)O)c3ncc(-c4ccc(C(=O)NC5CC5)c(C)c4)n3n2)cn1 [Example 264, N-cyclopropyl-4-{8-[(2-hydroxy-2-methylpropyl)amino]-6-[(6-methylpyridin-3-yl)oxy]imidazo[1,2-b]pyridazin-3-yl}-2-methylbenzamide] | 2

More lines, in order of falling IC50, values ahead:

IC50 [nM] | SMILES
0.4 | Cc1cccc(Oc2cc(NCCC(F)(F)F)c3ncc(-c4ccc(C(=O)NC5CC5)c(C)c4)n3n2)c1 [Example 470, N-cyclopropyl-2-methyl-4-{6-(3-methylphenoxy)-8-[(3,3,3-trifluoro-propyl)amino]imidazo [1,2-b]pyridazin-3-yl} benzamide]
0.3 | Cc1cc(-c2cnc3c(NCC4CCS(=O)(=O)C4)cc(Oc4cccc(F)c4)nn23)ccc1C(=O)NC1CC1 (stereo not shown) [Example 327, N-cyclopropyl-4-[8-{[(1,1-dioxidotetrahydro-thiophen-3-yl)methyl]amino}-6-(3-fluorophenoxy)imidazo[1,2-b]pyridazin-3-yl]-2-methylbenzamide]
0.2 | Cc1cc(-c2cnc3c(NCCC(N)=O)cc(Oc4cccc(F)c4)nn23)ccc1C(=O)NC1CC1 [Example 549, 4-{8-[(3-amino-3-oxopropyl)amino]-6-(3-fluorophenoxy)imidazo[1,2-b]pyridazin-3-yl}-N-cyclopropyl-2-methyl-benzamide]
0.2 | COc1ccc(Sc2cc(NCCC(F)(F)F)c3ncc(-c4ccc(C(=O)NC5CC5)c(C)c4)n3n2)cc1 [Example 227, N-cyclopropyl-4-{6-[(4-methoxyphenyl)sulfanyl]-8-[(3,3,3-trifluoropropyl)amino]imidazo[1,2-b]pyridazin-3-yl}-2-methylbenzamide]
0.2 | Cc1cc(-c2cnc3c(NCCCN(C)C)cc(Oc4cccc(F)c4)nn23)ccc1C(=O)NC1CC1 [Example 312, N-cyclopropyl-4-[8-{[3-(dimethylamino)propyl]amino}-6-(3-fluorophenoxy)imidazo[1,2-b]pyridazin-3-yl]-2-methyl-benzamide]
0.1 | COc1ccc(Oc2cc(NCCS(C)(=O)=O)c3ncc(-c4ccc(C(=O)NC5CC5)c(C)c4)n3n2)c(F)c1 [Example 519, N-cyclopropyl-4-[6-(2-fluoro-4-methoxyphenoxy)-8-{[2-(methylsulfonyl)ethyl]amino]imidazo [1,2-b]pyridazin-3-yl]-2-methylbenzamide]
0.1 | Cc1cc(-c2cnc3c(NCCC(F)(F)F)cc(Oc4ccc5ncccc5c4)nn23)ccc1C(=O)NC1CC1 [Example 169, N-cyclopropyl-2-methyl-4-{6-(quinolin-6-yloxy)-8-[(3,3,3-trifluoro-propyl)amino]imidazo[1,2-b]pyridazin-3-yl}benzamide]
0.1 | Cc1cc(-c2cnc3c(NCCC(F)(F)F)cc(Nc4ccc(F)cc4)nn23)ccc1C(=O)NC1CC1 [Example 358, N-cyclopropyl-4-{6-[(4-fluorophenyl)amino]-8-[(3,3,3-trifluoropropyl)amino]imidazo[1,2-b]pyridazin-3-yl}-2-methylbenzamide]
